Measurements taken from patent US8252832B2, “Kinesin inhibitors as cancer therapeutics” (Novartis AG, priority 2007, dated 2012).
Read-outs that look alike come from different tables or passages of the source.

Assays:
Assay type in all cases: cell-based
BT-474 = assay: CellTiter-Glo, NCI60 panel; details: Breast; for GI50: Homo sapiens
How it was run: (§1)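 Compounds are added to adherent cells after a 24 h attachment period or to non-adherent cells immediately, and plates are incubated 48 h at 37° C. Viability is then read as ATP-driven luciferase luminescence. Data give the concentration needed for half-maximal growth reduction.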

LOX IMVI = assay: CellTiter-Glo, NCI60 panel; details: Melanoma; for GI50: Homo sapiens
How it was run: as §1

HCT-116 = assay: CTG (CellTiter-Glo) screening assay; details: Homo sapiens
From the text: Identification of tumor types that are the most sensitive to the KSP inhibitors of the present invention can be accomplished using an unbiased approach that uses several cell-based assays. The assays chosen were as follows: • CellTiter-Glo®. This is an assay designed to measure ATP concentration in a cell culture, and can be correlated to cell number. Briefly CellTiter-Glo® (Promega Corporation) is a homogeneous method using the single CellTiter-Glo® reagent to detect ATP wherein ATP in the assay drives the activity of a thermostable luciferase to create a luminescent signal which can then be measured and correlated with the number of viable cells. Briefly, for adherent cells, 1,000 to 5,000 cells/well were plated in 96-well plates (100 μl/well) and let to adhere for 24 hours before being treated with drug. For non-adherent cells, 1,000 to 10,000 cells/well were plated in 96-well plates (100 μl/well) and immediately treated with drug. Drug dilutions were prepared in DMSO at 1000 times the final concentration. These dilutions were then diluted 1/100 in growth media before being added to the cells (11 μl/well) to achieve the desired final concentration. […] Protocol for a 72 hour cell proliferation assay: The 72 hour assay was performed the same way as the 48 hour assay except for the following modifications: For adherent cells, 500 to 5,000 cells/well were plated in 96-well plates (90 μl/well cell growth media) and left to adhere for 24 hours before being treated with drug. For non-adherent cells, 1,000 to 10,000 cells/well were plated in 96-well plates (90 μl/well cell growth media) and immediately treated with drug. Data values presented represent the concentration of test compound required for a 50% reduction in growth. • LDH release. […] The enzymatic reaction is coupled to a chemical reaction that uses a tetrazolium salt to form a formazan that is red and can be detected by its absorbance at 490 nm. […]

[1] = GI50 in nM, read-out: Log(GI50) (converted)

With `CC(C)(C)[C@H](c1nc(-c2cc(F)ccc2F)cn1Cc1ccccc1)N(CC[C@H](N)CF)C(=O)CO` [Compound IIa] the “Differential vs mean Log(GI50)” value (BT-474) was −0.669, the GI50 (BT-474; [1]) was 10 nM and the GI50 (BT-474; read-out: GI50) was 10 nM. For the same compound, the GI50 (LOX IMVI; [1]) was 10 nM, the GI50 (LOX IMVI; read-out: GI50) was 10 nM and the “Differential vs mean Log(GI50)” value (LOX IMVI) was −0.669. The GI50 (HCT-116; HCT-116, 24 h) was greater than 5 nM, the GI50 (HCT-116; HCT-116, 48 h) was 0.11 nM and the GI50 (HCT-116; HCT-116, 72 h) was 0.13 nM.
